One series deals with L132. As to the kind of experiment: Antiproliferative activity against human L-132 cells up to 25 uM after 72 hrs by MTT assay. The note with it: l132, 72 h. Type of series: cell-based. (In general: Tetrazolium assays rely on reduction of a dye to a coloured formazan, in cell work by metabolically active cells.)
Series [1] concerns HT-29. As to the kind of experiment: Cell cycle arrest in human HT-29 cells assessed as accumulation at S phase up to 10 uM after 48 hrs by propidium iodide/RNase staining based flow cytometric analysis. It is filed as functional. A general note: In flow cytometry, cells or beads pass a laser one at a time.
The test system of series [2] is HT-29. As to the kind of experiment: Down regulation of COX-2 level in human HT-29 cells up to 25 uM after 48 hrs by Western blot analysis. It is filed as functional, cell-based. On the technique in general: Immunoblotting shows a protein as a band on a membrane.
The test system of series [3] is HT-29. The series can be described thus: Antiproliferative activity against human HT-29 cells assessed as inhibition of cell proliferation after 72 hrs by MTT assay. The conditions noted are these: for IC50: HT-29, 72 h. It is filed as functional, cell-based.
Series [4] concerns HT-29. As to the kind of experiment: Down regulation of survivin level in human HT-29 cells up to 25 uM after 48 hrs by Western blot analysis. It is filed as functional, cell-based.
The subject of series [5] is HT-29. The series can be described thus: Cytotoxicity against human HT-29 cells assessed as cell death at 50 uM after 72 hrs by Propidium iodide staining-based flow cytometric analysis relative to control. It is filed as functional.
Series [6] has as its system HT-29. The series can be described thus: Cytotoxicity against human HT-29 cells assessed as increase in cell death after 72 hrs by Propidium iodide staining-based flow cytometric analysis. Type of series: functional.
Series [7] concerns HT-29. As to the kind of experiment: Antiproliferative activity against human HT-29 cells assessed as inhibition of cell proliferation at 25 uM after 72 hrs by MTT assay. The note with it: HT-29, 72 h. Type of series: functional.
Series [8] has as its system HT-29. The series can be described thus: Cell cycle arrest in human HT-29 cells assessed as accumulation at S phase up to 5 uM after 48 hrs by propidium iodide/RNase staining based flow cytometric analysis. It is filed as functional.
Series [9] has as its system HT-29. As to the kind of experiment: Cell cycle arrest in human HT-29 cells assessed as accumulation at G2/M phase up to 10 uM after 48 hrs by propidium iodide/RNase staining based flow cytometric analysis. Type of series: functional.
Series [10] has as its system HT-29. The series can be described thus: Induction of apoptosis in human HT-29 cells assessed as increase in apoptotic body formation up to 25 uM after 72 hrs by calcein-AM/ethidium homodimer-1 staining-based fluorescence microscopic analysis. Type of series: functional, cell-based.
The subject of series [11] is HT-29. As to the kind of experiment: Cell cycle arrest in human HT-29 cells assessed as accumulation at G0/G1 phase up to 5 uM after 48 hrs by propidium iodide/RNase staining based flow cytometric analysis. Type of series: functional.
Series [12] has as its system HT-29. As to the kind of experiment: Cell cycle arrest in human HT-29 cells assessed as accumulation at S phase up to 7 uM after 48 hrs by propidium iodide/RNase staining based flow cytometric analysis. It is filed as functional.
Series [13] deals with HT-29. As to the kind of experiment: Cell cycle arrest in human HT-29 cells assessed as accumulation at G2/M phase up to 15 uM after 48 hrs by propidium iodide/RNase staining based flow cytometric analysis. Type of series: functional.

Calls of active or inactive are those of the source. The rule behind the calls is not given here. Some results are limits rather than exact numbers.

In general, IC50 refers to the concentration needed to halve the response being measured. A word on the inhibition: it is the drop in the measured response relative to a control, in per cent.

On to `CC1(C)CC[C@@H]2c3cc(O)ccc3C[C@]3(C)CCC[C@@H]1[C@H]23`, for which the Activity result was “Non-Toxic” in the series with L132, “Dose-dependent effect” with HT-29 [3], more than 50% with HT-29 [5] and “Dose-dependent effect” in the series on HT-29 [6]. Moreover, the outcome in the series with HT-29 [1], in the series with HT-29 [2] and with HT-29 [4] was Active. The IC50 in the series with HT-29 [3] was found to be 16 µM. Further, the inhibition at 25 µM with HT-29 [7] is 114%.
Turning to `O=c1[nH]cc(F)c(=O)[nH]1` [FLUOROURACIL], the Activity result in the series on L132 is given as “Non-Toxic”. Moreover, in the series with HT-29 [3], the Activity result was “Dose-dependent effect” and the IC50 is 6.5 µM. For the same compound, the outcome in the series on HT-29 [8] was Active. Further, the result with HT-29 [6] was inactive.
As to `Cc1ccc(C[C@]2(O)CCC[C@H]3C(C)(C)CCC[C@@]32C)cc1`, the inhibition at 25 µM in the series with HT-29 [7] worked out at 13%.
On the same count and under the same terms, then `CC1(C)CC[C@@H]2c3cccc(O)c3C[C@]3(C)CCC[C@@H]1[C@H]23`, with 39.1%.
On to `COc1ccc(C[C@]2(O)CCC[C@H]3C(C)(C)[C@@H](O)CC[C@@]32C)cc1`, for which the inhibition at 25 µM in the series on HT-29 [7] is -3.48%.
Still for that read-out and setting: then `CC1(C)CC[C@@H]2c3ccccc3C[C@]3(C)CCC[C@@H]1[C@H]23`, with 22.4%; and `C[C@@H]1CC[C@H]2C(C)(C)[C@@H](O)CC[C@]2(C)C1(O)Cc1ccccc1O` (some centres undefined), with -1.89%.
Still for that read-out and setting: in the case of `CC(C)(C)c1ccc2c(c1)[C@H]1CCC(C)(C)[C@@H]3CCC[C@@](C)(C2)[C@@H]13` it was -1.89%.
`CC1(C)CC[C@@H]2c3ccc(O)cc3C[C@]3(C)CCC[C@@H]1[C@H]23`: the outcome in the series on HT-29 [9] was Active. Moreover, the Activity entry was “Non-Toxic” in the series on L132, “Dose-dependent effect” in the series on HT-29 [3], more than 50% in the series on HT-29 [5] and “Dose-dependent effect” with HT-29 [6]. Further, the IC50 in the series on HT-29 [3] was found to be 20.5 µM. The inhibition at 25 µM with HT-29 [7] came out at 112%.
As for `C[C@@H]1CC[C@@H]2C3=C(C[C@]4(C)CCC[C@@H]1[C@H]24)C(=O)C=CC3=O`, the Activity result with L132 was “Non-Toxic”; in the series with HT-29 [3], “Dose-dependent effect”; in the series with HT-29 [5] it was more than 50%; in the series on HT-29 [6], “Dose-dependent effect”. Further, the outcome in the series on HT-29 [2], in the series on HT-29 [10], in the series on HT-29 [4] and in the series with HT-29 [11] was Active. Besides, in the series with HT-29 [3], the IC50 was determined as 8 µM. Besides, in the series on HT-29 [7], the inhibition at 25 µM worked out at 71.8%.
For the compound `COc1ccc(CC2(O)CCC[C@@H]3CCCC[C@@H]32)cc1` (some centres undefined), in the series on HT-29 [7], the inhibition at 25 µM turned out to be 0.56%.
As for `CC1(C)CC[C@@H]2C3=C(C[C@]4(C)CCC[C@@H]1[C@H]24)C(=O)C=CC3=O`, the Activity result with L132 is “Non-Toxic”; with HT-29 [3], “Dose-dependent effect”; with HT-29 [5] it was more than 50%; with HT-29 [6] it was “Dose-dependent effect”. Besides, the result in the series with HT-29 [1], in the series with HT-29 [2] and in the series on HT-29 [4] was Active. In the series with HT-29 [3], the IC50 came out at 14.5 µM. In the series on HT-29 [7], the inhibition at 25 µM turned out to be 124%.
For the compound `CC1(C)CC[C@@H]2c3cc(O)c(O)cc3C[C@]3(C)CCC[C@@H]1[C@H]23`, the result in the series with HT-29 [12], in the series on HT-29 [2], in the series on HT-29 [10] and in the series on HT-29 [4] was Active. For the same compound, the Activity entry with L132 is “Non-Toxic”; in the series on HT-29 [3] it was “Dose-dependent effect”; with HT-29 [6] it was “Dose-dependent effect”. Moreover, the IC50 in the series on HT-29 [3] came to 7.5 µM. For the same compound, the inhibition at 25 µM with HT-29 [7] came out at 142%.
As for `CC1(C)CC[C@@H]2c3ccc(O)c(O)c3C[C@]3(C)CCC[C@@H]1[C@H]23`, the Activity entry was “Non-Toxic” in the series on L132, “Dose-dependent effect” in the series on HT-29 [3] and “Dose-dependent effect” with HT-29 [6]. Besides, the result in the series on HT-29 [1], with HT-29 [2] and in the series on HT-29 [4] was Active. Also, the half-maximal inhibitory concentration (IC50) with HT-29 [3] worked out at 16.5 µM. Further, the inhibition at 25 µM in the series with HT-29 [7] came out at 118%.
Regarding `CC1(C)CC[C@@H]2c3cc(O)ccc3C[C@@]3(C)[C@@H]2[C@H]1CCC3(C)C`, the Activity entry with L132 was “Non-Toxic”; in the series with HT-29 [3] it was “Dose-dependent effect”; with HT-29 [5], more than 50%; in the series on HT-29 [6], “Dose-dependent effect”. Also, the outcome in the series on HT-29 [13], with HT-29 [2], with HT-29 [10] and with HT-29 [4] was Active. In the series on HT-29 [3], the IC50 amounted to 15 µM. The inhibition at 25 µM in the series with HT-29 [7] stood at 97.5%.

The values above are taken from ChEMBL document CHEMBL4308860, “Nature-inspired development of unnatural meroterpenoids as the non-toxic anti-colon cancer agents” (Eur J Med Chem, 2018).
